“Also recorded” adds a separate entry of the source.
Tested on: mouse IL-6
Assay: IL-6 ELISA on culture medium of differentiated C2C12 cells exposed to a cytokine mixture (cytomix, CTX)
Type: cell-based
Conditions: for % reduction IL-6: C2C12, 24 h pre-treatment, then 24 h with cytomix; for IL-6 / anti-inflammatory effect (FIG. 1): pre-treatment for 24 hours at 3.125 μM alone
Method: C2C12 Myoblasts purchased from ATCC (ref. CRL-1772) were seeded at 8000 cells per well in a 96 well plate (Greiner) using a DMEM Glutamax 4.5g D-glucose (Gibco, ref 31966021) supplemented with FIBS 10% (PanBiotech, ref P190902), 1% PenStrep (Biowest) and 1% Hepes (Biowest). Cells were then differentiated for 6 days using a differentiation medium (DMEM Glutamax 4.5g D-glucose (Gibco, ref 31966021), 2% Horse serum (Thermofisher, ref 160501229) 1% PenStrep and 1% Hepes). All media were sterilized with a 0.45 um filter unit (VWR). After 4 days of the differentiation cells were treated for 24 h with 1) Urolithin A (UA) resuspended in DMSO, 2) ginsenoside […]-3832) or 3) a combination of the two at the indicated doses. A cytokine mixture (“cytomix”) was added at day 5 in addition of the previous treatment for another 24 h, cytokines were respectively used at 5ng (mIFN-γ (Roche ref. 11276905001), TNF-α (Peprotech ref. 300-01A) and IL-1β (Proteintech ref. 200-01B)). The medium was collected and an ELISA for Interleukin-6 were performed following the instruction provided by the supplier (Proteintech ref. KE10007). In particular, the IL-6 ELISA kit is to be used to detect and quantify protein levels of endogenous mouse IL-6. The assay recognizes mouse IL-6. An antibody specific for mouse IL-6 has been pre-coated onto the microwells. The IL-6 protein in samples is captured by the coated antibody after incubation. Following extensive washing, another antibody of biotinylated specific for mouse IL-6 is added to detect the captured mouse IL-6 protein. For signal development, Streptavidin-HRP is added, followed by Tetramethyl-benzidine (TMB) reagent. Solution containing sulfuric acid is used to stop colour development and the colour intensity which is proportional to the quantity of bound protein is measurable at 450 nm with the correction wavelength set at 630 nm, using a microplate plate reader (Fluostar Optima, BMG Labtech). We exposed of C2C12 to a mix of pro-inflammatory cytokines (cytomix, CTX) to induce inflammation signals. Interleukin-6 (IL-6), a multifunctional cytokine produced in cells and induced by a variety of stimulating signals. IL-6 production and release in the media is a proxy of the inflammation induced by treatment with the cytokines part of the cytomix (Tosato & Jones (1990) Blood 75(6), 1305-10). With cytomix treatment, we observed a significant increase in Interleukin 6 (IL-6) secretion, measured as the concentration of IL-6 in the cell culture media.

SMILES	% reduction IL-6 (CTX 5 ng vs. Rg1 3.125 μM + CTX)	IL-6 / anti-inflammatory effect (FIG. 1) (cytomix-treated C2C12)	IL-6 / anti-inflammatory effect (FIG. 1) (cytomix-treated C2C12, listed as Rg1)	IL-6 (FIG. 1) (pre-treatment for 24 hours at 12.5 μM, cytomix-treated C2C12)	IL-6 (FIG. 1) (pre-treatment for 24 hours at 100 μM, cytomix-treated C2C12)	IL-6, dose dependence (FIG. 1) (pre-treatment for 24 hours, 3.125 to 100 μM, cytomix-treated C2C12)	% reduction IL-6 (CTX 5 ng vs. UA 6.25 μM + CTX) [%]	IL-6 secretion (FIG. 1) (pre-treatment for 24 hours at 6.25 μM, cytomix-treated C2C12)
CC(C)=CCC[C@](C)(O[C@@H]1O[C@H](CO)[C@@H](O)[C@H](O)[C@H]1O)[C@H]1CC[C@]2(C)[C@@H]1[C@H](O)C[C@@H]1[C@@]3(C)CC[C@H](O)C(C)(C)[C@@H]3[C@@H](O[C@@H]3O[C@H](CO)[C@@H](O)[C@H](O)[C@H]3O)C[C@]12C [Ginsenoside Rg1, ginsenoside Rg1]	+9.8%	no effects	did not show any anti-inflammatory effect alone; also recorded: no effects	non-significant trend in reduction	significant decrease	dose dependent decrease in IL-6		
O=c1oc2cc(O)ccc2c2ccc(O)cc12 [Urolithin A]							−16	significantly decreased IL-6 secretion

Reference: patent US20250161391A1, “UROLITHIN COMBINATION” (Amazentis SA, priority 2023, published 2025)
